Reference: patent US5817669A, “Compounds, processes for the preparation thereof and anti-tumor agents” (Dainippon Pharmaceutical Co., Ltd., priority 1994, dated 1998)
Converted amounts (≈) assume the structure as drawn. Counter-ions that a name gives are not always drawn. Like-named read-outs stand apart in the source and are kept apart here.

Assays:
HMV2 human melanoma = experiment: In vitro anti-tumor activity against HMV-2 human melanoma (MTT); assay type: cell-based; settings: HMV-2, 72 h
Method in brief: (§1)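 Compound treatment lasts 72 hours on cells seeded 20 hours earlier (500–2,000/well, 37° C, 5% CO2); a 4-hour MTT step follows, with formazan taken up in DMSO.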

[1] = tested on: WiDr human colorectal cancer; experiment: In vitro anti-tumor activity against WiDr human colorectal cancer (MTT); assay type: cell-based; settings: 72 h
Method in brief: as §1

C33A human cervix cancer = experiment: In vitro anti-tumor activity against C-33A human cervix cancer (MTT); assay type: cell-based; settings: 72 h
Method in brief: as §1

A427 human lung cancer = experiment: In vitro anti-tumor activity against A-427 human lung cancer (MTT); assay type: cell-based; settings: A-427, 72 h
Method in brief: as §1

Acute toxicity = settings: mouse, in vivo, mice, 14th day
Description: Solutions of test compounds in predetermined concentrations were administered (0.1 ml/10 g body weight) to female BALB/c CrSlc mice (5 to 10 animals per one group, 10 weeks old) respectively, and, thus, LD50 values were calculated from the mortalities of the mice on the 14th day after the administration.

[2] = tested on: murine P388 lymphocytic leukemia cells; experiment: In vitro anti-tumor activity against murine P388 lymphocytic leukemia cells (MTT, 72 h); assay type: cell-based; settings: Mus musculus, read-out: IC50 (50% proliferation inhibitory concentration)
Method in brief: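 MTT assay, 72 h exposure; formazan dissolved in DMSO after centrifugation and supernatant removal. Absorbance read at 570 nm with 690 nm reference. IC50 (μg/ml) by least squares.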

[3] = tested on: KB human nasopharynx cancer; experiment: In vitro anti-tumor activity against KB human nasopharynx cancer (MTT); assay type: cell-based; settings: 72 h
Method in brief: as §1

[4] = tested on: AZ521 human stomach cancer; experiment: In vitro anti-tumor activity against AZ-521 human stomach cancer (MTT); assay type: cell-based; settings: AZ-521, 72 h
Method in brief: as §1

[5] = tested on: colon 26 murine tumor cells; experiment: Tumor growth inhibition effect on colon 26 murine tumor cells implanted mice; assay type: in vivo, SLC: CDF1 mice; settings: Mus musculus, read-out: Tumor growth inhibition rate IR (%); for inhibition in vivo at 1.56 mg/kg: 1.56 mg/kg once a day
Method in brief: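 CDF1 female mice (7–9 weeks, 7 per group) implanted intracutaneously in the abdomen with 2% brei of colon 26 cells. Compound given ip once daily from day 1 to day 9. Tumor weight estimated from diameters on day 21 or 22; IR % = [1 − (treated MTW/control MTW)] × 100.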

[6] = tested on: MKN45 human stomach cancer; experiment: In vitro anti-tumor activity against MKN45 human stomach cancer (MTT); assay type: cell-based
Method in brief: as §1

[7] = tested on: murine P388 lymphocytic leukemia cells; experiment: Increases in life span of mice implanted with murine P388 lymphocytic leukemia cells; assay type: in vivo, SLC: BDF1 mice; settings: Mus musculus, P388, ip, 720 h
Solubility = settings: for solubility relative to that of Compound 1-1 and 3: relative to Compound 1-1 and 3 (Z is hydrogen)
[8] = Intraperitoneal administration (ip)
[9] = MKN-45, MKN45, 72 h, MTT, read-out: IC50
[10] = NCI criterion, ip, 1.56 mg/kg, read-out: Evaluation
[11] = NCI criterion, ip, 3.13 mg/kg, read-out: Evaluation
[12] = NCI criterion, ip, 6.25 mg/kg, read-out: Evaluation
[13] = NCI criterion, ip, 12.5 mg/kg, read-out: Evaluation
[14] = NCI criterion, ip, 25 mg/kg, read-out: Evaluation
[15] = ip, 1.56 mg/kg, days 1 and 5, in solution, read-out: ILS (%) (in solution)
[16] = ip, 3.13 mg/kg, days 1 and 5, in solution, read-out: ILS (%) (in solution)
[17] = ip, 3.13 mg/kg, days 1 and 5, in suspension, read-out: ILS (%) (in suspension)
[18] = ip, 6.25 mg/kg, days 1 and 5, in solution, read-out: ILS (%) (in solution)
[19] = ip, 12.5 mg/kg, days 1 and 5, in solution, read-out: ILS (%) (in solution)
[20] = ip, 12.5 mg/kg, days 1 and 5, in suspension, read-out: ILS (%) (in suspension)
[21] = ip, 25 mg/kg, days 1 and 5, in solution, read-out: ILS (%) (in solution)
[22] = Intravenous administration (iv)
[23] = Colon 26, 504 h, ip, days 1-9, day 21 or 22
[24] = read-out: ILS (%) (in solution)

Structure (SMILES)	IC50 (HMV2 human melanoma; MTT, read-out: IC50) [µg/mL]	IC50 ([1]; MTT, read-out: IC50) [µg/mL]	IC50 (C33A human cervix cancer; C-33A, MTT, read-out: IC50) [µg/mL]	IC50 (A427 human lung cancer; MTT, read-out: IC50) [µg/mL]	LD50 at 336 h (Acute toxicity; [8]) [mg/kg]	IC50 ([2]; murine P388 cells, 72 h, MTT) [µg/mL]	IC50 ([3]; KB, MTT, read-out: IC50) [µg/mL]	IC50 ([4]; MTT, read-out: IC50) [µg/mL]	IC50 [6, 9] [µg/mL]	ILS at 1.56 mg/kg [7, 10] [%]	ILS at 3.13 mg/kg [7, 11] [%]	ILS at 6.25 mg/kg [7, 12] [%]	ILS at 12.5 mg/kg [7, 13] [%]	ILS at 25 mg/kg [7, 14] [%]	ILS at 3.13 mg/kg [7, 16] [%]	ILS at 3.13 mg/kg [7, 17] [%]	ILS at 6.25 mg/kg [7, 18] [%]	ILS at 12.5 mg/kg [7, 19] [%]	ILS at 12.5 mg/kg [7, 20] [%]	LD50 at 336 h (Acute toxicity; [22]) [mg/kg]	further results
CO[C@@H]1CN(c2ccc3c(=O)c(C(=O)O)cn(-c4nccs4)c3n2)C[C@H]1N (relative stereo) [Compound 2]	0.382 (≈ 0.986 µM)	1.88 (≈ 4.85 µM)	0.314 (≈ 0.81 µM)	0.169 (≈ 0.436 µM)	135	0.0178 (≈ 0.0459 µM)	0.309 (≈ 0.798 µM)	0.331 (≈ 0.854 µM)	0.579 (≈ 1.49 µM)	20 to 74	> 75	> 75	> 75	> 75	88	63	100	125	138		inhibition in vivo at 12.5 mg/kg ([5]; Colon 26, 504 h, ip, 12.5 mg/kg once a day, days 1-9, day 21 or 22): 79%; ILS at 50 mg/kg ([7]; NCI criterion, ip, read-out: Evaluation): > 75%; ILS at 1.56 mg/kg [7, 15]: 50%; ILS at 25 mg/kg [7, 21]: 213%; ILS at 50 mg/kg ([7]; ip, days 1 and 5, in solution, read-out: ILS (%) (in solution)): > 275%; ILS at 50 mg/kg ([7]; ip, days 1 and 5, in suspension, read-out: ILS (%) (in suspension)): 238%
CN[C@@H]1CN(c2ccc3c(=O)c(C(=O)O)cn(-c4nccs4)c3n2)C[C@H]1C (relative stereo) [Compound 5]	0.0944 (≈ 0.245 µM)	0.218 (≈ 0.566 µM)	0.106 (≈ 0.275 µM)	0.0927 (≈ 0.24 µM)		0.0117 (≈ 0.0304 µM)	0.0805 (≈ 0.209 µM)	0.0433 (≈ 0.112 µM)	0.0978 (≈ 0.254 µM)	20 to 74	> 75	> 75	> 75		113	88	150	188	188	66.7	inhibition in vivo at 1.56 mg/kg [5, 23]: 78%; ILS at 1.56 mg/kg [7, 15]: 50%
COC1CN(c2ccc3c(=O)c(C(=O)O)cn(-c4nccs4)c3n2)CC1N(C)C(=O)[C@H](C)N (stereo partly drawn) [Compound 1-1-3, 7-[trans-3-(N-L-alanylmethylamino)-4-methoxy-1-pyrrolidinyl]-1,4-dihydro-4-oxo-1-(2-thiazolyl)-1,8-naphthyridine-3-carboxylic acid hydrochloride]																					solubility (Solubility; 0.1 m phosphate buffer, pH 7.2, aqueous buffer): > 234 mg/mL; solubility relative to that of Compound 1-1 and 3 (Solubility): ≥ 10 times; solubility (Solubility; water): > 98.7 mg/mL
C[C@H](N)C(=O)NC1CCN(c2ccc3c(=O)c(C(=O)O)cn(-c4nccs4)c3n2)C1.Cl (stereo partly drawn) [Compound 3-1, 7-(3-L-alanylamino-1-pyrrolidinyl)-1,4-dihydro-4-oxo-1-(2-thiazolyl)-1,8-naphthyridine-3-carboxylic acid hydrochloride]																					solubility relative to that of Compound 1-1 and 3 (Solubility): ≥ 10 times; solubility (Solubility; water): 79.4 mg/mL
CNC1(C)CCN(c2ccc3c(=O)c(C(=O)O)cn(-c4nccs4)c3n2)C1 (centres unmarked) [Compound 4]	0.187 (≈ 0.485 µM)	0.392 (≈ 1.02 µM)	0.144 (≈ 0.374 µM)	0.194 (≈ 0.503 µM)		0.0175 (≈ 0.0454 µM)	0.172 (≈ 0.446 µM)	0.1 (≈ 0.259 µM)	0.199 (≈ 0.516 µM)		20 to 74	> 75	> 75	> 75	63	63	88	125	125	> 100	inhibition in vivo at 1.56 mg/kg [5, 23]: 64%; inhibition in vivo at 3.13 mg/kg ([5]; Colon 26, 504 h, ip, 3.13 mg/kg once a day, days 1-9, day 21 or 22): 89%; ILS at 25 mg/kg [7, 21]: 150%
COc1cc([C@@H]2c3cc4c(cc3[C@@H](O[C@@H]3O[C@@H]5CO[C@@H](C)O[C@H]5[C@H](O)[C@H]3O)[C@H]3COC(=O)[C@H]23)OCO4)cc(OC)c1O [Compound H, Etoposide, reference compound]					71															123	IC50 (HMV2 human melanoma): 0.298 µg/mL (≈ 0.506 µM); IC50 [1]: 1.63 µg/mL (≈ 2.77 µM); IC50 (C33A human cervix cancer; C-33-A): 0.084 µg/mL (≈ 0.143 µM); IC50 (A427 human lung cancer): 0.095 µg/mL (≈ 0.161 µM); IC50 ([2]; P388, 72 h): 0.00849 µg/mL (≈ 0.0144 µM); IC50 [3]: 0.201 µg/mL (≈ 0.342 µM); IC50 [4]: 0.08 µg/mL (≈ 0.136 µM); inhibition in vivo at 12.5 mg/kg ([5]; Colon 26, ip, 504 h): 57%; IC50 ([6]; MKN-45, 72 h): 0.49 µg/mL (≈ 0.833 µM); ILS at 1.56 mg/kg ([7]; read-out: Evaluation): 20 to 74%; ILS at 3.13 mg/kg ([7]; read-out: Evaluation): > 75%; ILS at 6.25 mg/kg ([7]; read-out: Evaluation): > 75%; ILS at 12.5 mg/kg ([7]; read-out: Evaluation): > 75%; ILS at 25 mg/kg ([7]; read-out: Evaluation): > 75%; ILS at 1.56 mg/kg [7, 24]: 50%; ILS at 3.13 mg/kg [7, 24]: 75%; ILS at 6.25 mg/kg [7, 24]: 100%; ILS at 12.5 mg/kg [7, 24]: 150%; ILS at 25 mg/kg [7, 24]: > 275%
